Measured values: ChEMBL document CHEMBL1157106, “cis-Clerodane-type furanoditerpenoids from Tinospora crispa” (J Nat Prod, 2010)

How the values were obtained:
[1] = test system: PC-3; assay: cells; settings: Homo sapiens, PC-3, 72 h
Description: Cytotoxicity against human PC3 cells after 72 hrs by MTT assay

[2] = test system: NIH3T3; assay: Cytotoxicity against mouse 3T3 cells after 72 hrs by MTT assay; assay type: cell-based; settings: NIH3T3, 72 h

Row | Compound | IC50 [1] | IC50 [2]
1 | COC(=O)C1=CCC[C@H]2[C@]3(C)C[C@@H](c4ccoc4)OC(=O)[C@@H]3C[C@@H](O[C@@H]3O[C@H](CO)[C@@H](O)[C@H](O)[C@H]3O)[C@@]12C [BORAPETOSIDE C] | > 10 µM | > 10 µM
2 | COC(=O)C1=CCC[C@H]2[C@](C)(C[C@@H](O[C@@H]3O[C@H](CO[C@@H]4O[C@H](CO)[C@@H](O)[C@H](O)[C@H]4O)[C@@H](O)[C@H](O)[C@H]3O)c3ccoc3)[C@H]3C[C@H](OC3=O)[C@@]12C [BORAPETOSIDE D] | > 10 µM | > 10 µM
3 | C[C@@H]1C[C@@H]([C@H](O)CC2CC(=O)NC(=O)C2)C(=O)[C@@H](C)C1 [CYCLOHEXIMIDE] | – | 0.26 µM

The next lines start with results.

Row | IC50 [1] | Compound | IC50 [2]
4 | > 10 µM | C[C@@]12C[C@@H](c3ccoc3)OC(=O)[C@@H]1C[C@@H]1OC(=O)[C@@]3(O)[C@@H](O[C@@H]4O[C@H](CO)[C@@H](O)[C@H](O)[C@H]4O)CC[C@@H]2[C@@]13C [BORAPETOSIDE A] | > 10 µM
5 | > 10 µM | COC(=O)C1=C[C@H](O)C[C@H]2[C@]3(C)C[C@@H](c4ccoc4)OC(=O)[C@H]3C[C@H](O[C@@H]3O[C@H](CO)[C@@H](O)[C@H](O)[C@H]3O)[C@@]12C [BORAPETOSIDE B] | > 10 µM
6 | 0.912 µM | COc1cccc2c1C(=O)c1c(O)c3c(c(O)c1C2=O)C[C@@](O)(C(=O)CO)C[C@@H]3O[C@H]1C[C@H](N)[C@H](O)[C@H](C)O1 [DOXORUBICIN] | –
